Measurements published in PMC10045593, “Ubiquitin-Specific Proteases as Potential Therapeutic Targets in Bladder Cancer—In Vitro Evaluation of Degrasyn and PR-619 Activity Using Human and Canine Models” (Biomedicines, 2023).
“And” between values parts separate entries of the source, which are not always exact repeats. Equal values may be shown once.

How the values were obtained:
RDSVS-TCC1 cell line = test: MTT cell proliferation assay; format: cell-based, canine; details: highest concentration used (20 μM)
Description: (§1) Cell proliferation was determined using the 3-(4,5-dimethylthiazol-2-yl)-2,5-diphenyltetrazolium bromide (MTT) assay (Sigma-Aldrich, Steinheim, Germany). Cells were plated at a density of 1 × 10^5 cells per mL in 96-well plates (Thermo Fisher Scientific, Roskilde, Denmark) and allowed to attach overnight. Subsequently, Degrasyn and PR-619 were added in increasing concentrations (0.6, 1.25, 2.5, 5, 10, and 20 μM). After incubation for 24, 48, and 72 h with either the compounds or in the medium alone, 20 μL of MTT solution (5 mg/mL) was added to each well. After an additional 4 h, 80 μL of the lysis buffer (225 mL DMF, 67.5 g SDS, and 275 mL distilled water) was added to each well. After dissolving the content, the absorbance was measured at a […] of 570 nm using a spectrophotometric microplate reader Spark (Tecan). The values were obtained from 3 independent experiments (different plates, different days). Based on the results, the concentration that inhibited 50% of the cell proliferation (IC50) was calculated for all incubation intervals.

K9TCC-PU-NK cell line = test: MTT cell proliferation assay; format: cell-based, canine; details: highest concentration used (20 μM)
Description: as §1

SV-HUC-1 cell line [1] = test: Annexin V-FITC/PI apoptosis flow cytometry; format: cell-based, human; details: SV-HUC-1, 24 h; for pro-apoptotic effect (number of apoptotic cells vs control): increasing concentrations up to approximately IC50
Description: (§2) To assess the level of apoptosis induced by Degrasyn and PR-619, cells were seeded at a density of 1 × 10^5/mL in 96-well plates (TPP, Trasadingen, Switzerland) and incubated for 24 h with increasing concentrations of compounds. Cells were then collected, suspended in a binding buffer, and stained with Annexin V-FITC for 10 min at room temperature. Subsequently, PI was added, and flow cytometric analysis was immediately performed using a flow cytometers (FACS Calibur, Becton Dickinson, Biosciences, San Jose, CA, USA; CytoFlex, Beckman Coulter, CA, USA). CellQuest 3.lf. (Becton Dickinson, San Jose, CA, USA) and CytExpert 2.4 (Beckman Coulter, CA, USA) software were used for data analysis.

T24 cell line [2] = test: Annexin V-FITC/PI apoptosis flow cytometry; format: cell-based, human; details: T24, 24 h; for pro-apoptotic effect (number of apoptotic cells vs control): increasing concentrations up to approximately IC50
Description: as §2

[3] = tested on: γH2AX in canine BC cell lines (K9TCC-PU-NK, RDSVS-TCC1); test: Western blot for γH2AX (DNA damage); format: cell-based; details: 24 h
Description: (§3) Western blot was performed to assess the expression of USP5, USP9X, and USP14 in analyzed cell lines. After 24 h of incubation with increasing concentrations of Degrasyn and PR-619, the expression of proteins involved in apoptosis (Bcl-2 and Bcl-xl) and a marker of DNA damage (γH2A.X) was also evaluated. Briefly, cells were rinsed with cold phosphate-buffered saline (PBS), suspended in lysis buffer (50 mM Tris-HCl pH 7.5, 100 mM NaCl, 1% NP-40, protease inhibitors set), and incubated for 20 min on ice. Subsequently, after centrifuging at 10,000 rpm at 4 °C for 12 min, sodium dodecyl sulfate (SDS) sample buffer was added to […]. After boiling for 5 min at 95 °C, the samples were subjected to SDS-polyacrylamide gel electrophoresis on 8–15% gel. For USP5, USP9X, USP14, γH2A.X, Bcl-2, and Bcl-xl expression analysis, transfers onto nitrocellulose membranes were performed using a Semidry Transfer Cell or wet transfer method (Bio-Rad, Hercules, CA, USA). After transfer, the membranes were blocked with 1% casein in TBS (or 3% BSA for γH2Ax) at room temperature for 1 h. […]

SV-HUC-1 cell line [4] = test: Caspase 3/7 activation flow cytometry assay; format: cell-based, human; details: SV-HUC-1, 24 h
Description: (§4) Subsequently, to assess caspases 3/7 activation, the cells were incubated with medium alone or with increasing concentrations of compounds (Degrasyn, PR-619) in conditions similar to the previous test. Following cell collection, the cells were twice PBS-washed and stained in accordance with the manufacturer’s instructions. For active caspase 3/7 detection, CellEventCaspase-3/7 Green Detection Reagent Solution was added to the samples. The cells were then suspended 1 more time in the wash buffer after being washed twice. For flow cytometric analysis, a flow cytometers (FACS Calibur, Becton Dickinson, Biosciences, San Jose, CA, USA; CytoFlex, Beckman Coulter, CA, USA) were used, and CellQuest 3.lf (Becton Dickinson, San Jose, CA, USA) and CytExpert 2.4 (Beckman Coulter, CA, USA) software were used for data analysis. The presented results were obtained from three independent experiments.

T24 cell line [5] = test: Caspase 3/7 activation flow cytometry assay; format: cell-based, human; details: T24, 24 h
Description: as §4

[6] = tested on: Bcl-2 in all BC cell lines (T24, K9TCC-PU-NK, RDSVS-TCC-1); test: Western blot for Bcl-2 expression; format: cell-based, human and canine; details: 24 h
Description: as §3

[7] = tested on: USP5 protein in T24 cells; test: Western blot for USP5 expression; format: cell-based, human; details: T24, 24 h; Degrasyn 0.6, 1.25, 2.5 μM; PR-619 1.25, 2.5, 5 μM
Description: as §3

[8] = 2.5 μM (highest concentration of Degrasyn)
[9] = 5 μM (highest concentration of PR-619)

CCC[C@H](NC(=O)/C(C#N)=C/c1cccc(Br)n1)c1ccccc1 [Degrasyn]
cells killed at the highest concentration (RDSVS-TCC1 cell line): ~100%
cells killed at the highest concentration (K9TCC-PU-NK cell line): ~100%
percentage of early and late apoptotic cells (SV-HUC-1 cell line [1]; 2.5 μM): 24.1 ± 2.8%
pro-apoptotic effect (number of apoptotic cells vs control) (SV-HUC-1 cell line [1]): significant increase
percentage of early and late apoptotic cells (T24 cell line [2]; 2.5 μM): 32.2 ± 9.2%
pro-apoptotic effect (number of apoptotic cells vs control) (T24 cell line [2]): significant increase
expression of γH2AX ([3]; only 5 µM): high expression
percentage of cells with active caspase 3/7 (SV-HUC-1 cell line [4]; 0.6 μM): 5.8%
percentage of cells with active caspase 3/7 (SV-HUC-1 cell line [4]; 1.25 μM): 7.6%
percentage of cells with active caspase 3/7 (SV-HUC-1 cell line [4]; [8]): 22.4 ± 5.4% and 22.4%
percentage of cells with active caspase 3/7 (T24 cell line [5]; 0.6 μM): 12.5%
percentage of cells with active caspase 3/7 (T24 cell line [5]; 1.25 μM): 16.1%
percentage of cells with active caspase 3/7 (T24 cell line [5]; [8]): 36.6 ± 0.7% and 36.6%
expression of Bcl-2 protein ([6]; 5 μM): slightly decreased
USP5 protein expression [7]: clearly decreased

N#CSc1cc(SC#N)c(N)nc1N [PR-619]
cells killed at the highest concentration (RDSVS-TCC1 cell line): ~100%
cells killed at the highest concentration (K9TCC-PU-NK cell line): ~100%
percentage of early and late apoptotic cells (SV-HUC-1 cell line [1]; 5 μM): 14.8 ± 5.8%
pro-apoptotic effect (number of apoptotic cells vs control) (SV-HUC-1 cell line [1]): did not show a significant pro-apoptotic effect
percentage of early and late apoptotic cells (T24 cell line [2]; 5 μM): 9.8 ± 1.5%
pro-apoptotic effect (number of apoptotic cells vs control) (T24 cell line [2]): did not show a significant pro-apoptotic effect
amount of γH2AX ([3]; highest concentrations of the drug): only a slight visible increase
percentage of cells with active caspase 3/7 (SV-HUC-1 cell line [4]; 1.25 μM): 8.9%
percentage of cells with active caspase 3/7 (SV-HUC-1 cell line [4]; [8]): 10.6%
percentage of cells with active caspase 3/7 (SV-HUC-1 cell line [4]; [9]): 19.6 ± 1.8% and 19.6%
percentage of cells with active caspase 3/7 (T24 cell line [5]; 1.25 μM): 10.2%
percentage of cells with active caspase 3/7 (T24 cell line [5]; [8]): 13.4%
percentage of cells with active caspase 3/7 (T24 cell line [5]; [9]): 16.1 ± 4.9% and 16.1%
expression of Bcl-2 protein ([6]; 10 μM): slightly decreased
USP5 protein expression [7]: no visible effect
